# Earlier results in patent US12233205B2, “Thermal modulation of an inhalable medicament” (priority 2014, dated 2025).
# Conditions: administered IV
row,Compound,bioavailability
1,Nc1nc(NC2CC2)c2ncn([C@H]3C=C[C@@H](CO)C3)c2n1 [Abacavir],61-89%
2,Cc1nnc(SCC2=C(C(=O)O)N3C(=O)[C@@H](NC(=O)Cn4cnnn4)[C@H]3SC2)s1 [Cefazolin],around 78%
3,C[C@@H](O)[C@H]1C(=O)N2C(C(=O)O)=C(S[C@@H]3CN[C@H](C(=O)Nc4cccc(C(=O)O)c4)C3)[C@H](C)[C@H]12 [Ertapenem],around 90%
4,Gentamicin,around 100%

# Same assay, conditions: administered PO
row,Compound,bioavailability
1,Nc1nc(NC2CC2)c2ncn([C@H]3C=C[C@@H](CO)C3)c2n1 [Abacavir],around 83%
2,Nc1nc2c(ncn2COCCO)c(=O)[nH]1 [Acyclovir],10-20%
3,NC12CC3CC(CC(C3)C1)C2 [Amantadine],around 86%
4,CC(=O)Oc1ccccc1C(=O)O [Aspirin],61-80%
5,CC[C@H]1OC(=O)[C@H](C)[C@@H](O[C@H]2C[C@@](C)(OC)[C@@H](O)[C@H](C)O2)[C@H](C)[C@@H](O[C@@H]2O[C@H](C)C[C@H](N(C)C)[C@H]2O)[C@](C)(O)C[C@@H](C)CN(C)[C@H](C)[C@@H](O)[C@]1(C)O [Azithromycin],around 38%
6,[H]/N=C(\N/C(=N/[H])NCCCCCCNC(=N)NC(=N)Nc1ccc(Cl)cc1)Nc1ccc(Cl)cc1 [Chlorhexidine],around 4%
7,CC[C@H]1OC(=O)[C@H](C)[C@@H](O[C@H]2C[C@@](C)(OC)[C@@H](O)[C@H](C)O2)[C@H](C)[C@@H](O[C@@H]2O[C@H](C)C[C@H](N(C)C)[C@H]2O)[C@](C)(OC)C[C@@H](C)C(=O)[C@H](C)[C@@H](O)[C@]1(C)O [Clarithromycin],around 55%
8,Nc1nc(O)c2ncn(COC(CO)CO)c2n1 [Ganciclovir],around 5%
9,CC(C)Cc1ccc(C(C)C(=O)O)cc1 (stereo not shown) [Ibuprofen],58-98%
10,NNC(=O)c1ccncc1 [Isoniazid],around 90%
11,C[C@H]1COc2c(N3CCN(C)CC3)c(F)cc3c(=O)c(C(=O)O)cn1c23 [Levofloxacin],around 99%
12,CN(C)c1ccc(O)c2c1C[C@H]1C[C@H]3[C@H](N(C)C)C(O)=C(C(N)=O)C(=O)[C@@]3(O)C(O)=C1C2=O [Minocycline],around 90%
13,CCOc1ccc2ccccc2c1C(=O)N[C@@H]1C(=O)N2[C@@H]1SC(C)(C)[C@@H]2C(=O)O [Nafcillin],around 50%
14,CN(C)C(=O)Oc1cccc([N+](C)(C)C)c1 [Neostigmine],1-2%
15,Cc1ccnc2c1NC(=O)c1cccnc1N2C1CC1 [Nevirapine],80-94%
16,CCOC(=O)C1=C[C@@H](OC(CC)CC)[C@H](NC(C)=O)[C@@H](N)C1 [Oseltamivir],around 75%
17,CNC[C@H](O)c1cccc(O)c1 [Phenylephrine],around 38%
18,Cc1nnc(C(=O)NC(C)(C)c2nc(C(=O)NCc3ccc(F)cc3)c(O)c(=O)n2C)o1 [Raltegravir],20-43%
19,NC(=O)c1ncn([C@@H]2O[C@H](CO)[C@@H](O)[C@H]2O)n1 [Ribavirin],around 64%
20,CO[C@H]1/C=C/O[C@@]2(C)Oc3c(C)c(O)c4c(O)c(c(/C=N/N5CCN(C)CC5)c(O)c4c3C2=O)NC(=O)/C(C)=C\C=C\[C@H](C)[C@H](O)[C@@H](C)[C@@H](O)[C@@H](C)[C@H](OC(C)=O)[C@@H]1C [Rifampin],90-95%
21,COc1cccc(C2(O)CCCCC2CN(C)C)c1 (stereo not shown) [Tramadol],75-95%
22,CN[C@H](CC(C)C)C(=O)N[C@H]1C(=O)N[C@@H](CC(N)=O)C(=O)N[C@H]2C(=O)N[C@H]3C(=O)N[C@H](C(=O)N[C@H](C(=O)O)c4cc(O)cc(O)c4-c4cc3ccc4O)[C@H](O)c3ccc(c(Cl)c3)Oc3cc2cc(c3O[C@@H]2O[C@H](CO)[C@@H](O)[C@H](O)[C@H]2O[C@H]2C[C@](C)(N)[C@H](O)[C@H](C)O2)Oc2ccc(cc2Cl)[C@H]1O [Vancomycin],negligible
23,Gentamicin,negligible
24,"Penicillin G, V",30-80%

# Same assay, conditions: administered PR
row,Compound,bioavailability
1,CO[C@@]1(NC(=O)Cc2cccs2)C(=O)N2C(C(=O)O)=C(COC(N)=O)CS[C@@H]21 [Cefoxitin],7-17%

# Same assay, conditions: administered as a nasal spray
row,Compound,bioavailability
1,CN1CCCC(n2nc(Cc3ccc(Cl)cc3)c3ccccc3c2=O)CC1 (stereo not shown) [Azelastine],around 40%
2,CNS(=O)(=O)Cc1ccc2[nH]cc(CCN(C)C)c2c1 [Sumatriptan],around 25%

# Same assay, conditions: administered as an inhalable
row,Compound,bioavailability
1,NC[C@H]1O[C@H](O[C@H]2[C@H](O)[C@@H](O[C@H]3O[C@H](CO)[C@@H](O)[C@H](N)[C@H]3O)[C@H](N)C[C@@H]2N)[C@H](N)C[C@@H]1O [Tobramycin],1-16.6%

# Same assay, conditions: in vivo, im
row,Compound,bioavailability
1,CCOC(=O)C1(c2ccccc2)CCN(C)CC1 [Meperidine],around 57%

# Same assay, conditions: in vivo, inhaled or intranasal
row,Compound,bioavailability
1,C[C@@H]1C[C@H]2[C@@H]3CCC4=CC(=O)C=C[C@]4(C)[C@@]3(Cl)[C@@H](O)C[C@]2(C)[C@@]1(O)C(=O)CCl [Mometasone],around 1%

# Same assay, conditions: in vivo, po
row,Compound,bioavailability
1,CNCC[C@H](Oc1cccc2ccccc12)c1cccs1 [Duloxetine],30-80%
2,Cc1ncc2n1-c1ccc(Cl)cc1C(c1ccccc1F)=NC2 [Midazolam],around 36%

# Same assay, conditions: route not stated
row,Compound,bioavailability
1,CC(=O)N[C@H]1[C@H]([C@H](O)[C@H](O)CO)OC(C(=O)O)=C[C@@H]1N=C(N)N [Zanamivir],4-17%
